Here are results for 6 compounds from PubChem BioAssay AID1259407 (Chemical Carcinogenesis Research Information System (CCRIS), 2018).

The test system of the data set is CCRIS mutagenicity, Ames/micronucleus/aberration tests. The data set is described as follows: CCRIS mutagenicity studies.
Where [1] appears, read: Test System: AMES SALMONELLA TYPHIMURIUM, Strain/Indicator: TA98, Metabolic Activation: NONE, Method: PREINCUBATION
The mark [2] stands for this setting: Test System: AMES SALMONELLA TYPHIMURIUM, Strain/Indicator: TA100, Metabolic Activation: NONE, Method: PREINCUBATION
Where [3] appears, read: Test System: AMES SALMONELLA TYPHIMURIUM, Strain/Indicator: TA1535, Metabolic Activation: NONE, Method: PREINCUBATION
Where [4] appears, read: Test System: AMES SALMONELLA TYPHIMURIUM, Strain/Indicator: TA1537, Metabolic Activation: NONE, Method: PREINCUBATION
Setting [5] is: Test System: AMES SALMONELLA TYPHIMURIUM, Strain/Indicator: TA104, Metabolic Activation: NONE, Method: PREINCUBATION

Calls of active or inactive are those of the source. No rule for the calls is given here.

As for `Cc1nc(N)nc(N)n1`, the mutagenic call by setting is: under setting [1], “inactive; negative”; (Test System: AMES SALMONELLA TYPHIMURIUM, Strain/Indicator: TA98, Metabolic Activation: RAT LIVER S-9, PHENOBARBITAL AND BETA-NAPHTHOFLAVONE, Method: PREINCUBATION) “inactive; negative”; under setting [2], “inactive; negative”; (Test System: AMES SALMONELLA TYPHIMURIUM, Strain/Indicator: TA100, Metabolic Activation: RAT LIVER S-9, PHENOBARBITAL AND BETA-NAPHTHOFLAVONE, Method: PREINCUBATION) “inactive; negative”; under setting [3], “inactive; negative”; (Test System: AMES SALMONELLA TYPHIMURIUM, Strain/Indicator: TA1535, Metabolic Activation: RAT LIVER S-9, PHENOBARBITAL AND BETA-NAPHTHOFLAVONE, Method: PREINCUBATION) “inactive; negative”. For the same compound, the mutagenic call by setting is: under setting [4], “inactive; negative”; (Test System: AMES SALMONELLA TYPHIMURIUM, Strain/Indicator: TA1537, Metabolic Activation: RAT LIVER S-9, PHENOBARBITAL AND BETA-NAPHTHOFLAVONE, Method: PREINCUBATION) “inactive; negative”; (Test System: AMES SALMONELLA TYPHIMURIUM, Strain/Indicator: TA1538, Metabolic Activation: NONE, Method: PREINCUBATION) “inactive; negative”; (Test System: AMES SALMONELLA TYPHIMURIUM, Strain/Indicator: TA1538, Metabolic Activation: RAT LIVER S-9, PHENOBARBITAL AND BETA-NAPHTHOFLAVONE, Method: PREINCUBATION) “inactive; negative”; (Test System: E.COLI, Strain/Indicator: WP2UVRA, Metabolic Activation: NONE, Method: PREINCUBATION) “inactive; negative”; (Test System: E.COLI, Strain/Indicator: WP2UVRA, Metabolic Activation: RAT LIVER S-9, PHENOBARBITAL AND BETA-NAPHTHOFLAVONE, Method: PREINCUBATION) “inactive; negative”.

In the case of `COc1ccc(C(=O)[C@@H]2O[C@@H]2c2ccccc2)cc1`, the mutagenic call is, setting by setting: (Test System: AMES SALMONELLA TYPHIMURIUM, Strain/Indicator: TA98, Metabolic Activation: NONE, Method: STANDARD PLATE) “inactive; negative”; (Test System: AMES SALMONELLA TYPHIMURIUM, Strain/Indicator: TA98, Metabolic Activation: RAT, LIVER, S-9, AROCLOR 1254, Method: STANDARD PLATE) “inactive; negative”; (Test System: AMES SALMONELLA TYPHIMURIUM, Strain/Indicator: TA100, Metabolic Activation: NONE, Method: STANDARD PLATE) “inactive; negative”; (Test System: AMES SALMONELLA TYPHIMURIUM, Strain/Indicator: TA100, Metabolic Activation: RAT, LIVER, S-9, AROCLOR 1254, Method: STANDARD PLATE) “inactive; negative”.

For `O=[N+]([O-])c1ccc(S(=O)(=O)O)cc1`, the mutagenic call is “inactive; negative” under setting [1]; “inactive; negative” (Test System: AMES SALMONELLA TYPHIMURIUM, Strain/Indicator: TA98, Metabolic Activation: RAT, LIVER, S-9, KANECHLOR 500, Method: PREINCUBATION); “inactive; negative” under setting [2]; “inactive; negative” (Test System: AMES SALMONELLA TYPHIMURIUM, Strain/Indicator: TA100, Metabolic Activation: RAT, LIVER, S-9, KANECHLOR 500, Method: PREINCUBATION).

Consider `O=C1C=CC(=O)C(Cl)=C1`, for which the mutagenic call is “inactive; negative” under setting [1]; “inactive; negative” (Test System: AMES SALMONELLA TYPHIMURIUM, Strain/Indicator: TA98, Metabolic Activation: RAT, LIVER, S-9, PHENOBARBITAL AND 5,6-BENZOFLAVONE, Method: PREINCUBATION); “inactive; negative” under setting [2]; “inactive; negative” (Test System: AMES SALMONELLA TYPHIMURIUM, Strain/Indicator: TA100, Metabolic Activation: RAT, LIVER, S-9, PHENOBARBITAL AND 5,6-BENZOFLAVONE, Method: PREINCUBATION); “inactive; negative” (Test System: AMES SALMONELLA TYPHIMURIUM, Strain/Indicator: TA102, Metabolic Activation: NONE, Method: PREINCUBATION); “inactive; negative” (Test System: AMES SALMONELLA TYPHIMURIUM, Strain/Indicator: TA102, Metabolic Activation: RAT, LIVER, S-9, PHENOBARBITAL AND 5,6-BENZOFLAVONE, Method: PREINCUBATION). The mutagenic call was “inactive; negative” under setting [5]; “inactive; negative” (Test System: AMES SALMONELLA TYPHIMURIUM, Strain/Indicator: TA104, Metabolic Activation: RAT, LIVER, S-9, PHENOBARBITAL AND 5,6-BENZOFLAVONE, Method: PREINCUBATION); “inactive; negative” (Test System: AMES SALMONELLA TYPHIMURIUM, Strain/Indicator: TA2637, Metabolic Activation: NONE, Method: PREINCUBATION); “inactive; negative” (Test System: AMES SALMONELLA TYPHIMURIUM, Strain/Indicator: TA2637, Metabolic Activation: RAT, LIVER, S-9, PHENOBARBITAL AND 5,6-BENZOFLAVONE, Method: PREINCUBATION).

On to `O=C(Cl)C(Cl)c1ccccc1` (stereo not drawn), for which the mutagenic call is, setting by setting: under setting [1], “active; positive”; (Test System: AMES SALMONELLA TYPHIMURIUM, Strain/Indicator: TA98, Metabolic Activation: RAT LIVER S-9, PCB, Method: PREINCUBATION) “active; positive”; under setting [2], “active; positive”; (Test System: AMES SALMONELLA TYPHIMURIUM, Strain/Indicator: TA100, Metabolic Activation: RAT LIVER S-9, PCB, Method: PREINCUBATION) “active; positive”; under setting [5], “active; positive”; (Test System: AMES SALMONELLA TYPHIMURIUM, Strain/Indicator: TA104, Metabolic Activation: RAT LIVER S-9, PCB, Method: PREINCUBATION) “active; positive”. Also, the mutagenic call is “active; positive” (Test System: E.COLI, Strain/Indicator: WP2 UVRA, Metabolic Activation: NONE, Method: PREINCUBATION) and “active; positive” (Test System: E.COLI, Strain/Indicator: WP2 UVRA, Metabolic Activation: RAT LIVER S-9, PCB, Method: PREINCUBATION).

Turning to `CS(=O)(=O)c1ccc(O)c(N)c1`, the mutagenic call is “inactive; negative” (Test System: AMES SALMONELLA TYPHIMURIUM, Strain/Indicator: TA97, Metabolic Activation: HAMSTER, LIVER, S-9, AROCLOR 1254 (10 OR 30%), Method: PREINCUBATION); “inactive; negative” (Test System: AMES SALMONELLA TYPHIMURIUM, Strain/Indicator: TA97, Metabolic Activation: NONE, Method: PREINCUBATION); “inactive; negative” (Test System: AMES SALMONELLA TYPHIMURIUM, Strain/Indicator: TA97, Metabolic Activation: RAT, LIVER, S-9, AROCLOR 1254 (10 OR 30%), Method: PREINCUBATION); “inactive; negative” (Test System: AMES SALMONELLA TYPHIMURIUM, Strain/Indicator: TA98, Metabolic Activation: HAMSTER, LIVER, S-9, AROCLOR 1254 (10 OR 30%), Method: PREINCUBATION); “inactive; negative” under setting [1]; “inactive; negative” (Test System: AMES SALMONELLA TYPHIMURIUM, Strain/Indicator: TA98, Metabolic Activation: RAT, LIVER, S-9, AROCLOR 1254 (10 OR 30%), Method: PREINCUBATION). Besides, the mutagenic call runs as follows: (Test System: AMES SALMONELLA TYPHIMURIUM, Strain/Indicator: TA100, Metabolic Activation: HAMSTER, LIVER, S-9, AROCLOR 1254 (10 OR 30%), Method: PREINCUBATION) “inactive; negative”; under setting [2], “inactive; negative”; (Test System: AMES SALMONELLA TYPHIMURIUM, Strain/Indicator: TA100, Metabolic Activation: RAT, LIVER, S-9, AROCLOR 1254 (10 OR 30%), Method: PREINCUBATION) “inactive; negative”; (Test System: AMES SALMONELLA TYPHIMURIUM, Strain/Indicator: TA1535, Metabolic Activation: HAMSTER, LIVER, S-9, AROCLOR 1254 (10 OR 30%), Method: PREINCUBATION) “inactive; negative”; under setting [3], “inactive; negative”; (Test System: AMES SALMONELLA TYPHIMURIUM, Strain/Indicator: TA1535, Metabolic Activation: RAT, LIVER, S-9, AROCLOR 1254 (10 OR 30%), Method: PREINCUBATION) “inactive; negative”. In addition, the mutagenic call is, setting by setting: (Test System: AMES SALMONELLA TYPHIMURIUM, Strain/Indicator: TA1537, Metabolic Activation: HAMSTER, LIVER, S-9, AROCLOR 1254 (10 OR 30%), Method: PREINCUBATION) “inactive; negative”; under setting [4], “inactive; negative”; (Test System: AMES SALMONELLA TYPHIMURIUM, Strain/Indicator: TA1537, Metabolic Activation: RAT, LIVER, S-9, AROCLOR 1254 (10 OR 30%), Method: PREINCUBATION) “inactive; negative”.
